Like-named read-outs stand apart in the source and are kept apart here. Each block holds one molecule with its values, some of them ahead of it.
Assays:
[1] = molecular target: T1, ELF3 (Homo sapiens, UniProt P78545); experiment: Fluorescence polarization DNA binding assay, auto-inhibited ELF3; conditions: auto-inhibited construct; NA = no activity up to 2000 μM; >number = estimate from fit with lower bound
T1 sequence (P78545 1-371): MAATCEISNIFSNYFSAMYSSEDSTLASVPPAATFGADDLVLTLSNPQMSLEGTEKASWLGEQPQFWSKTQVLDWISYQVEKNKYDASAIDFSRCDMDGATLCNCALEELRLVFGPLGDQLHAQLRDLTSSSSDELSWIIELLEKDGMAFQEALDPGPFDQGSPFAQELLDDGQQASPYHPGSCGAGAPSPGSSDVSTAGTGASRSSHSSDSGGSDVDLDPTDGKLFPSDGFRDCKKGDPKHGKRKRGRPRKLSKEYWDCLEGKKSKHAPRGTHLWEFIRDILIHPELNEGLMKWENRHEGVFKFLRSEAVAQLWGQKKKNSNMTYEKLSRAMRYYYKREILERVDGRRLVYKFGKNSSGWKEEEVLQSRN
Description: (§1) The constructs of ERG which retain full auto-inhibition were previously delineated (17). Fluorescence polarization-based assays for DNA binding were then developed, which were used for screening. In addition to the auto-inhibited form of ERG, it was important to also have an assay using its Ets domain, i.e., the uninhibited form of the protein, to compare action of compounds. Compounds which are active against the auto-inhibited form of the protein but have little or no effect on the uninhibited form were sought, indicating their binding is mediated by the non-conserved auto-inhibitory modules rather than the highly conserved Ets domain. […] Fragment screening is an alternative approach that has gained a great deal of favor in the pharma industry recently that employs relatively small molecules (22). […] The auto-inhibited construct was screened first with a dose dependent screen of actives with ERGi using fluorescein- and Texas Red-DNA and then the positive hits were counter-screened with the ERG Ets domain, specifically a screen of actives with ERGu, the latter screen serving to remove compounds which bind to the conserved Ets domain or to DNA, which left 26 compounds which inhibit the auto-inhibited construct of ERG binding to DNA but not the uninhibited ERG (the Ets domain) binding to DNA. ERGi is the auto-inhibited construct of ERG (272-388) and ERGu is the uninhibited DNA binding domain construct of ERG (289-378). […] The IC50 of the validated hits was 0.6-7 mM. […] Importantly, chemical shift changes upon compound addition are observed in the ^15N-^1H HSQC NMR spectra of ERG for amino acids located in the auto-inhibitory modules of ERG, indicating they do interact with these regions of the protein. It is critical to also develop assays for other ETS family members to assess the specificity of action of the compounds identified in the screen, so auto-inhibited constructs were expressed and assays were developed for five other ETS family members and assays for additional members of the family were also developed.
(§2) Using a standard medicinal chemistry approach, further optimization of the fragment hits were pursued. The specificity of parent fragments and their optimized derivatives with 5 additional Ets proteins which are representatives of 5 additional sub-families, were evaluated, as shown in Table 2. […] NA in Table 2 represents no activity up to the 2000 μM maximum concentration. >number in Table 2 represents some activity at highest concentrations so data fit with a lower bound to obtain an estimate of IC50.

[2] = molecular target: Spi1 (PU.1) (Homo sapiens, UniProt P17947); experiment: Fluorescence polarization DNA binding assay, auto-inhibited PU.1; conditions: auto-inhibited construct; NA = no activity up to 2000 μM; >number = estimate from fit with lower bound
Description: as §1, §2

[3] = molecular target: T2, ETV6 (TEL) (Homo sapiens, UniProt P41212); experiment: Fluorescence polarization DNA binding assay, auto-inhibited ETV6; conditions: auto-inhibited construct; NA = no activity up to 2000 μM; >number = estimate from fit with lower bound
T2 sequence (P41212 1-452): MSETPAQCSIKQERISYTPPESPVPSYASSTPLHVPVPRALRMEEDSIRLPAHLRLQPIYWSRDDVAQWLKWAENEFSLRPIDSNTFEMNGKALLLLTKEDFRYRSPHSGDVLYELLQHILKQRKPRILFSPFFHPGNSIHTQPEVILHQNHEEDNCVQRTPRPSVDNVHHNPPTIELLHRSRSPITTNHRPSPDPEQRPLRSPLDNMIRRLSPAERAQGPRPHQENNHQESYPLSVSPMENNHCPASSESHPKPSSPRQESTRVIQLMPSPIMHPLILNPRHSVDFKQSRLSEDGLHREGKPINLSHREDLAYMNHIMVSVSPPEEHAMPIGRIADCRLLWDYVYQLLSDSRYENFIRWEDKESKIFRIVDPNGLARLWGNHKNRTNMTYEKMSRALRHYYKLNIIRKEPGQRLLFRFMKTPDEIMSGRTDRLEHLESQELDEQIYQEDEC
Description: as §1, §2

[4] = molecular target: T3, ERG isolated Ets domain (ERGu, 289-378) (Homo sapiens, UniProt P11308); experiment: Fluorescence polarization DNA binding assay, uninhibited ERG; conditions: FP DNA binding, NA = no activity up to 2000 μM, >number = estimate from fit with lower bound
T3 construct: made in house
T3 sequence (P11308 289-378 isoform P11308-1): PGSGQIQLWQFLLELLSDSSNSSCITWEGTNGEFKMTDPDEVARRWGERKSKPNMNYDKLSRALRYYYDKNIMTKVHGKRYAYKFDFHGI
Description: as §1, §2

[5] = molecular target: T4, Ets1 (Homo sapiens, UniProt P14921); experiment: Fluorescence polarization DNA binding assay, auto-inhibited Ets-1; conditions: auto-inhibited construct; NA = no activity up to 2000 μM; >number = estimate from fit with lower bound
T4 sequence (P14921 1-441): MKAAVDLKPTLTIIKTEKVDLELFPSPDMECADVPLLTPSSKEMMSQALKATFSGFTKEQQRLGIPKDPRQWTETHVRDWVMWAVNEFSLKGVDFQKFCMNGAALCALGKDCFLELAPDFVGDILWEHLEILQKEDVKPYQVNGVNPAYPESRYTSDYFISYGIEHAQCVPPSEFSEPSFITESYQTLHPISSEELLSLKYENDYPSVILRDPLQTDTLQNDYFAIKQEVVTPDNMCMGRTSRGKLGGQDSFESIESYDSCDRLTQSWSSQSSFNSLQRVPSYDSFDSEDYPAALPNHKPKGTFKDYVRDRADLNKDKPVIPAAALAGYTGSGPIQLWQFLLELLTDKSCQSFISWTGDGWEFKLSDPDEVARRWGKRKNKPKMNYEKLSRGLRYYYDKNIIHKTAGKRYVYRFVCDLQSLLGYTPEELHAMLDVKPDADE
Description: as §1, §2

[6] = molecular target: T5, ELK1 (Homo sapiens, UniProt P19419); experiment: Fluorescence polarization DNA binding assay, auto-inhibited ELK1; conditions: auto-inhibited construct; NA = no activity up to 2000 μM; >number = estimate from fit with lower bound
T5 sequence (P19419 1-428): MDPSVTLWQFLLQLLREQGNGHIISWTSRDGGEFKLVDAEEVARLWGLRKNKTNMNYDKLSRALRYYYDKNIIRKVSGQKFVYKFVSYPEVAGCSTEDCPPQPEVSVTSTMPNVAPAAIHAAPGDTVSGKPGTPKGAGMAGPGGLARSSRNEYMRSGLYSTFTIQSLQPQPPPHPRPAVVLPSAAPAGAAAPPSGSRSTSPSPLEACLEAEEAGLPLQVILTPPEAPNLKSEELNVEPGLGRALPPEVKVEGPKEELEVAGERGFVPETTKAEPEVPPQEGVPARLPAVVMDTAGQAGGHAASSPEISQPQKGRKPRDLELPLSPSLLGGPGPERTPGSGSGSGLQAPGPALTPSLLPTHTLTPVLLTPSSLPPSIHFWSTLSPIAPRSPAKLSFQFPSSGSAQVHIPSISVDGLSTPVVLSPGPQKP
Description: as §1, §2

[7] = molecular target: T6, ERG auto-inhibited construct (ERGi, 272-388) (Homo sapiens, UniProt P11308); experiment: ERGi-DNA fluorescence polarization assay; type: binding
T6 construct: made in house
T6 sequence (P11308 272-388 isoform P11308-1): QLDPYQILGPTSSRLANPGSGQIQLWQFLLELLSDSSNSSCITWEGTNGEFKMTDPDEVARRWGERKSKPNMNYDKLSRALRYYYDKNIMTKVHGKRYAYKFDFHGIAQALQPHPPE
Description: as §1, §2

[8] = molecular target: DNA; conditions: ITC, ERG construct binding to DNA; ±SE in cell beside; cited from earlier work
[9] = FP DNA binding, maximum concentration 2000 μM, read-out: IC50 ERG Auto-inhibited construct
[10] = optimized fragment analogs, values in text, read-out: IC50

IC50 [1]: 1.74 mM
IC50 [2]: > 3.3 mM
IC50 [3]: > 4.4 mM
IC50 [4]: > 2 mM
IC50 [5]: > 2.6 mM
IC50 [6]: > 2.5 mM
IC50 [7, 9]: 0.837 mM
Molecule: CCNc1cc(-c2nc3ccccc3o2)ccc1C [KK-23-07]

IC50 [1]: 1.83 mM
IC50 [2]: > 4.1 mM
IC50 [3]: > 2.5 mM
IC50 [4]: > 2 mM
IC50 [5]: > 2 mM
IC50 [6]: > 2.1 mM
IC50 [7, 9]: 0.965 mM
Molecule: Nc1ccc(Cl)c(-c2nc3ccccc3o2)c1 [Compound 9B5]

IC50 [1]: > 2 mM
IC50 [2]: > 2 mM
IC50 [3]: > 2 mM
IC50 [4]: > 2 mM
IC50 [5]: > 2 mM
IC50 [6]: > 2 mM
Molecule: COc1cccc2cc(C(C)=O)oc12 [Compound 9F1]

IC50 [1]: > 2 mM
IC50 [2]: > 5.7 mM
IC50 [3]: > 7.8 mM
IC50 [4]: > 2 mM
IC50 [5]: > 2 mM
IC50 [6]: > 2 mM
IC50 [7, 10]: 0.099 mM
Molecule: COc1ccc(-c2c(C(C)=O)oc3c(OC)cccc23)cc1 [KK-16-69]

IC50 [1]: > 2 mM
IC50 [2]: > 2 mM
IC50 [3]: > 2 mM
IC50 [4]: > 2 mM
IC50 [5]: > 4 mM
IC50 [6]: > 4.5 mM
IC50 [7, 9]: 0.588 mM
Molecule: Cc1ccc(OCC(=O)Nc2cccc(O)c2)cc1 [Compound 6H6]

IC50 [7, 10]: 0.063 mM
Molecule: Cc1ccc(-c2nc3ccccc3o2)cc1C [KK-19-109]

B1: 210-462: ERG truncation construct, residues 210-462 (protein, UniProt P11308 210-462, looked up, fragment)
chain: KALQNSPRLMHARNTGGAAFIFPNTSVYPEATQRITTRPDLPYEPPRRSAWTGHGHPTPQSKAAQPSPSTVPKTEDQRPQLDPYQILGPTSSRLANPGSGQIQLWQFLLELLSDSSNSSCITWEGTNGEFKMTDPDEVARRWGERKSKPNMNYDKLSRALRYYYDKNIMTKVHGKRYAYKFDFHGIAQALQPHPPESSLYKYPSDLPYMGSYHAHPQKMNFVAPHPPALPVTSSSFFAAPNPYWNSPTGGIYP
Kd [8]: 104 nM

B2: 272-412: ERG truncation construct, residues 272-412 (protein, UniProt P11308 272-412, looked up, fragment)
chain: AAQPSPSTVPKTEDQRPQLDPYQILGPTSSRLANPGSGQIQLWQFLLELLSDSSNSSCITWEGTNGEFKMTDPDEVARRWGERKSKPNMNYDKLSRALRYYYDKNIMTKVHGKRYAYKFDFHGIAQALQPHPPESSLYKYP
Kd [8]: 101 nM

B3: 1-462: ERG construct, residues 1-462 (protein, UniProt P11308 1-462, looked up, fragment)
chain: MASTIKEALSVVSEDQSLFECAYGTPHLAKTEMTASSSSDYGQTSKMSPRVPQQDWLSQPPARVTIKMECNPSQVNGSRNSPDECSVAKGGKMVGSPDTVGMNYGSYMEEKHMPPPNMTTNERRVIVPADPTLWSTDHVRQWLEWAVKEYGLPDVNILLFQNIDGKELCKMTKDDFQRLTPSYNADILLSHLHYLRETPLPHLTSDDVDKALQNSPRLMHARNTGGAAFIFPNTSVYPEATQRITTRPDLPYEPPRRSAWTGHGHPTPQSKAAQPSPSTVPKTEDQRPQLDPYQILGPTSSRLANPGSGQIQLWQFLLELLSDSSNSSCITWEGTNGEFKMTDPDEVARRWGERKSKPNMNYDKLSRALRYYYDKNIMTKVHGKRYAYKFDFHGIAQALQPHPPESSLYKYPSDLPYMGSYHAHPQKMNFVAPHPPALPVTSSSFFAAPNPYWNSPTGGIYP
Kd [8]: 121 nM

B4: 272-378: ERG truncation construct, residues 272-378 (protein, UniProt P11308 272-378, looked up, fragment)
chain: AAQPSPSTVPKTEDQRPQLDPYQILGPTSSRLANPGSGQIQLWQFLLELLSDSSNSSCITWEGTNGEFKMTDPDEVARRWGERKSKPNMNYDKLSRALRYYYDKNIM
Kd [8]: 33 nM

B5: 272-388: the auto-inhibited construct of ERG (272-388) (protein, UniProt P11308 272-388, looked up, fragment)
chain: AAQPSPSTVPKTEDQRPQLDPYQILGPTSSRLANPGSGQIQLWQFLLELLSDSSNSSCITWEGTNGEFKMTDPDEVARRWGERKSKPNMNYDKLSRALRYYYDKNIMTKVHGKRYAY
Kd [8]: 176 nM

B6: 289-412: ERG truncation construct, residues 289-412 (protein, UniProt P11308 289-412, looked up, fragment)
chain: QLDPYQILGPTSSRLANPGSGQIQLWQFLLELLSDSSNSSCITWEGTNGEFKMTDPDEVARRWGERKSKPNMNYDKLSRALRYYYDKNIMTKVHGKRYAYKFDFHGIAQALQPHPPESSLYKYP
Kd [8]: 51 nM

B7: 289-378: the uninhibited DNA binding domain construct of ERG (289-378) (protein, UniProt P11308 289-378, looked up, fragment)
chain: QLDPYQILGPTSSRLANPGSGQIQLWQFLLELLSDSSNSSCITWEGTNGEFKMTDPDEVARRWGERKSKPNMNYDKLSRALRYYYDKNIM
Kd [8]: 37 nM

B8: 289-388: ERG truncation construct, residues 289-388 (protein, UniProt P11308 289-388, looked up, fragment)
chain: QLDPYQILGPTSSRLANPGSGQIQLWQFLLELLSDSSNSSCITWEGTNGEFKMTDPDEVARRWGERKSKPNMNYDKLSRALRYYYDKNIMTKVHGKRYAY
Kd [8]: 41 nM
